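Where inhibition never reached the appropriate level, the endpoint shown equals the highest concentration tested. Otherwise, values were interpolated linearly from a five-concentration, 48-hour dose response in 96-well plates. GI50 = concentration required for 50% inhibition of growth.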 Activity calls are given as the source filed them. Rule as the data show it: active = GI50 up to about 1.1 µM and inactive = higher.
Legend:
Assay in all cases: NCI-60 cell line screen, 48 h
[1] = tested on: 786-0
[2] = tested on: A498
[3] = tested on: A549
[4] = tested on: ACHN
[5] = tested on: CAKI-1
[6] = tested on: CCRF-CEM
[7] = tested on: COLO 205
[8] = tested on: DLD-1
[9] = tested on: DMS-114
[10] = tested on: DMS-273
[11] = tested on: EKVX
[12] = tested on: HCC 2998
[13] = tested on: HCT-116
[14] = tested on: HCT-15
[15] = tested on: HL-60
[16] = tested on: HOP-18
[17] = tested on: HOP-62
[18] = tested on: HOP-92
[19] = tested on: HT-29
[20] = tested on: IGROV-1
[21] = tested on: K562
[22] = tested on: KM-20L2
[23] = tested on: KM12
[24] = tested on: LOX IMVI
[25] = tested on: LXFL 529
[26] = tested on: M14
[27] = tested on: M19-MEL
[28] = tested on: MOLT-4
[29] = tested on: Malme-3M
[30] = tested on: NCI-H23
[31] = tested on: NCI-H460
[32] = tested on: NCI-H522
[33] = tested on: OVCAR-3
[34] = tested on: OVCAR-4
[35] = tested on: OVCAR-5
[36] = tested on: OVCAR-8
[37] = tested on: RPMI-8226
[38] = tested on: RXF 631
[39] = tested on: SF-268
[40] = tested on: SF-295
[41] = tested on: SF-539
[42] = tested on: SK-MEL-28
[43] = tested on: SK-MEL-2
[44] = tested on: SK-MEL-5
[45] = tested on: SK-OV-3
[46] = tested on: SN12C
[47] = tested on: SNB-19
[48] = tested on: SNB-75
[49] = tested on: SNB-78
[50] = tested on: SR
[51] = tested on: SW-620
[52] = tested on: TK-10
[53] = tested on: U-251
[54] = tested on: UACC-257
[55] = tested on: UACC-62
[56] = tested on: UO-31
[57] = tested on: XF498
[58] = tested on: NCI-H226
[59] = tested on: RXF 393

NC(=O)N/N=C(/Cc1nc2ccc(C(=O)c3ccccc3)cc2nc1O)C(=O)Nc1ccc(C(F)(F)F)cc1[N+](=O)[O-]
GI50 [1]: > 100 µM (inactive)
GI50 [2]: > 100 µM (inactive)
GI50 [3]: > 100 µM (inactive)
GI50 [4]: > 100 µM (inactive)
GI50 [5]: 42.8 µM (inactive)
GI50 [6]: 36.5 µM (inactive)
GI50 [7]: 25.5 µM (inactive)
GI50 [8]: > 100 µM (inactive)
GI50 [9]: 52.1 µM (inactive)
GI50 [10]: 51.9 µM (inactive)
GI50 [11]: 14.2 µM (inactive)
GI50 [12]: 61.4 µM (inactive)
GI50 [13]: > 100 µM (inactive)
GI50 [14]: 50.7 µM
GI50 [15]: 42.1 µM (inactive)
GI50 [16]: 60.3 µM (inactive)
GI50 [17]: > 100 µM (inactive)
GI50 [18]: 45.7 µM (inactive)
GI50 [19]: 57.4 µM (inactive)
GI50 [20]: > 100 µM (inactive)
GI50 [21]: 39.6 µM (inactive)
GI50 [22]: 98.2 µM (inactive)
GI50 [23]: 84.5 µM (inactive)
GI50 [24]: 79.4 µM (inactive)
GI50 [25]: 45.5 µM (inactive)
GI50 [26]: 85.9 µM (inactive)
GI50 [27]: > 100 µM (inactive)
GI50 [28]: 6.1 µM (inactive)
GI50 [29]: > 100 µM (inactive)
GI50 [30]: 84.7 µM (inactive)
GI50 [31]: 65 µM (inactive)
GI50 [32]: 22.6 µM (inactive)
GI50 [33]: 43.4 µM (inactive)
GI50 [34]: > 100 µM (inactive)
GI50 [35]: > 100 µM (inactive)
GI50 [36]: 77.8 µM (inactive)
GI50 [37]: 50.1 µM (inactive)
GI50 [38]: 47 µM (inactive)
GI50 [39]: > 100 µM (inactive)
GI50 [40]: 74.8 µM (inactive)
GI50 [41]: 66.5 µM (inactive)
GI50 [42]: > 100 µM (inactive)
GI50 [43]: > 100 µM (inactive)
GI50 [44]: 56.2 µM (inactive)
GI50 [45]: 84.1 µM (inactive)
GI50 [46]: > 100 µM (inactive)
GI50 [47]: > 100 µM (inactive)
GI50 [48]: 26 µM (inactive)
GI50 [49]: > 100 µM (inactive)
GI50 [50]: 45.4 µM (inactive)
GI50 [51]: 65.2 µM (inactive)
GI50 [52]: > 100 µM (inactive)
GI50 [53]: 75 µM (inactive)
GI50 [54]: > 100 µM (inactive)
GI50 [55]: 38.7 µM (inactive)
GI50 [56]: 51.5 µM (inactive)
GI50 [57]: 38.6 µM (inactive)

COc1ccc(C(=O)C2=NON3OC23C(=O)c2ccc(OC)cc2)cc1 (stereo unspecified)
GI50 [1]: 3.44 µM (inactive)
GI50 [2]: 13.7 µM (inactive)
GI50 [3]: 22.4 µM (inactive)
GI50 [4]: 17.5 µM (inactive)
GI50 [5]: 2.81 µM (inactive)
GI50 [6]: 2.34 µM (inactive)
GI50 [7]: 7.62 µM (inactive)
GI50 [8]: 7.28 µM (inactive)
GI50 [9]: 5.96 µM (inactive)
GI50 [10]: 19.1 µM (inactive)
GI50 [11]: 19.3 µM (inactive)
GI50 [12]: 18.1 µM (inactive)
GI50 [13]: 7.26 µM (inactive)
GI50 [14]: 15.5 µM
GI50 [15]: 2.18 µM (inactive)
GI50 [16]: 18.9 µM (inactive)
GI50 [17]: > 100 µM (inactive)
GI50 [18]: 2.59 µM (inactive)
GI50 [19]: 22.4 µM (inactive)
GI50 [20]: 11.6 µM (inactive)
GI50 [21]: 3.12 µM (inactive)
GI50 [22]: 19.1 µM (inactive)
GI50 [23]: 19.2 µM (inactive)
GI50 [24]: 5.58 µM (inactive)
GI50 [25]: 2.63 µM (inactive)
GI50 [26]: 15.4 µM (inactive)
GI50 [27]: 16.5 µM (inactive)
GI50 [28]: 2.59 µM (inactive)
GI50 [29]: 12.9 µM (inactive)
GI50 [58]: 16.8 µM (inactive)
GI50 [30]: 13.2 µM (inactive)
GI50 [31]: 20.6 µM (inactive)
GI50 [32]: 1.82 µM (inactive)
GI50 [33]: 9.59 µM (inactive)
GI50 [34]: 5.74 µM (inactive)
GI50 [35]: 20.7 µM (inactive)
GI50 [36]: 8.77 µM (inactive)
GI50 [37]: 3.37 µM (inactive)
GI50 [59]: 4.09 µM (inactive)
GI50 [38]: 15.1 µM (inactive)
GI50 [39]: 18.8 µM (inactive)
GI50 [40]: 19.2 µM (inactive)
GI50 [41]: 10.3 µM (inactive)
GI50 [42]: 17.9 µM (inactive)
GI50 [43]: 19.5 µM (inactive)
GI50 [44]: 14.1 µM (inactive)
GI50 [45]: 19.5 µM (inactive)
GI50 [46]: 15.3 µM (inactive)
GI50 [47]: 15.9 µM (inactive)
GI50 [48]: 24.7 µM (inactive)
GI50 [49]: 13 µM (inactive)
GI50 [50]: 2.56 µM (inactive)
GI50 [51]: 3.31 µM (inactive)
GI50 [52]: 19.7 µM (inactive)
GI50 [53]: 16 µM (inactive)
GI50 [54]: 18.9 µM (inactive)
GI50 [55]: 17.8 µM (inactive)
GI50 [56]: 14.1 µM (inactive)
GI50 [57]: 10 µM (inactive)
